Laboratory results reported in patent publication EP4678638A1, “NEW E3 UBIQUITIN LIGASE LIGAND, PROTEIN DEGRADATION AGENT AND USE THEREOF” (priority 2023, dated 2024).
Blank lines part the entries; values can stand above or below the molecule they belong to.

Key:
[1] = tested on: SR; experiment: CCK-8 proliferation, SR; format: cell-based, Human; conditions: Homo sapiens, SR; CCK-8; 72 hours; read-out: Inhibitory activity (IC50) on tumor cell proliferation, SR
Outline: (§1)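 CCK-8 viability readout; IC50 from growth-inhibition curve fitting. Cells plated, dosed 24h later with a 10-point series, top 10µM, 5-fold steps. Culture at 37°C, 5% CO2.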

[2] = tested on: MM.1R; experiment: CCK-8 proliferation, MM.1R; format: cell-based; conditions: CCK-8, 72 hours, read-out: Inhibitory activity (IC50) on tumor cell proliferation, MM.1R
Procedure: (§2) The tumor cells used herein were cultured in a cell culture medium listed in table A1 at 37°C in an incubator with 5% CO2. Prior to experimentation, all cell lines used were correctly identified by STR profiling, and tested negative for mycoplasma contamination using a mycoplasma detection kit through routine screenings. Table A1. Tumor cells and cell culture medium used in the present disclosure
(§3) IC50 values of the compounds of the present disclosure (including the compounds in Table 1, and compounds of examples) were measured using the Meilun Cell Counting Kit-8 kit from Dalian Meilun Biotech Co., Ltd. Assay details are as follows: tumor cells were seeded in a 96-well plate at a density listed in Table A2. After 24h, 100 µL of the inoculated cells were treated with 0.5µL of the compounds of the present disclosure (including the compounds in Tables 1 and 2, and compounds of examples) at 10 different successively decreasing concentrations (starting at the highest concentration of 10µM; 5-fold serial dilutions). After the cells were treated with the compounds of the present disclosure for a period of time, the cell viability detection reagent was added to the culture medium for cell viability assessment according to the instructions provided with the CCK-8 kit. […] The growth inhibition of the compounds of the present disclosure on cells was plotted by Prism Graphpad software, and the IC50 values of the compounds of the present disclosure were calculated therefrom. […] Seeding protocol and treatment time for tumor cells

[3] = biological target: T1, CDK4 (Homo sapiens, UniProt P11802); experiment: Western blot degradation of CDK4 (MDA-MB-231 Cell); format: cell-based; conditions: Table D3
T1 construct: evaluate the effects of the compounds of the present disclosure on the expression of target proteins in cells; endogenous in cells; host or cells: MDA-MB-231
T1 sequence (P11802 whole entry): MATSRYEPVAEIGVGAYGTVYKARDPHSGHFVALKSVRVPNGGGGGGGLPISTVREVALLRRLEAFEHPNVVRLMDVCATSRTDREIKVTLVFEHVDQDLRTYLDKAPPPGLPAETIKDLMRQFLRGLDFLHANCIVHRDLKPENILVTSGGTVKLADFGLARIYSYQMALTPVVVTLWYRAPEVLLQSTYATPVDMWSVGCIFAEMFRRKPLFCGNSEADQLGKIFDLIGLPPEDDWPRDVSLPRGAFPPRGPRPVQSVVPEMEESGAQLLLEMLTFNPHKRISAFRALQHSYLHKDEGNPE
Outline: (§4)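 Degradation is assessed by immunoblotting lysates of treated cells. Target bands are quantified by grayscale and normalised to an internal control, so degradation rate equals 100% minus % remaining.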

[4] = tested on: H1975; experiment: CCK-8 proliferation, NCI-H1975 (H1975); format: cell-based, Human; conditions: Homo sapiens, NCI-H1975; CCK-8; 96 hours; read-out: Inhibitory activity (IC50) on tumor cell proliferation, H1975
Outline: as §1

[5] = tested on: Kasumi-1; experiment: CCK-8 proliferation, Kasumi-1; format: cell-based, Human; conditions: Homo sapiens, Kasumi 1, 72 hours, read-out: Inhibitory activity (IC50) on tumor cell proliferation, Kasumi-1
Procedure: as §2, §3

[6] = tested on: CCRF-CEM; experiment: CCK-8 proliferation, CCRF-CEM; format: cell-based, Human; conditions: Homo sapiens, CCRF-CEM; CCK-8; 96 hours; read-out: Inhibitory activity (IC50) on tumor cell proliferation, CCRF-CEM
Outline: as §1

[7] = tested on: MM.1S; experiment: CCK-8 proliferation, MM.1S; format: cell-based; conditions: Homo sapiens, MM1.S; CCK-8; 72 hours; read-out: Inhibitory activity (IC50) on tumor cell proliferation, MM1S
Outline: as §1

[8] = biological target: T2, CDK6 (Homo sapiens, UniProt Q00534); experiment: Western blot degradation of CDK6 (MDA-MB-231 Cell); format: cell-based; conditions: Table D3
T2 construct: evaluate the effects of the compounds of the present disclosure on the expression of target proteins in cells; endogenous in cells; host or cells: MDA-MB-231
T2 sequence (Q00534 whole entry): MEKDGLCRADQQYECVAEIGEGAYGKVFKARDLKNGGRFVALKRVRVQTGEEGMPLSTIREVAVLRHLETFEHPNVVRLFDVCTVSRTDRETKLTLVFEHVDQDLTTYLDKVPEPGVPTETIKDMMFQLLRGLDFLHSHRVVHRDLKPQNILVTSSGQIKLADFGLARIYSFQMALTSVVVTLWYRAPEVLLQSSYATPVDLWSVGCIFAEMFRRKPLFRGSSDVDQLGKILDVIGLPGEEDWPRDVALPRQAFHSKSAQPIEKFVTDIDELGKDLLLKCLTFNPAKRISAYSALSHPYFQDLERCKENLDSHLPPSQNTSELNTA
Outline: as §4

[9] = tested on: MCF7; experiment: CCK-8 proliferation, MCF7 (MCF-7); format: cell-based; conditions: Homo sapiens, MCF7; CCK-8; read-out: Inhibitory activity (IC50) on tumor cell proliferation, MCF7
Outline: as §1

[10] = tested on: 22RV1; experiment: CCK-8 proliferation, 22RV1; format: cell-based; conditions: Homo sapiens, 96 hours, read-out: Inhibitory activity (IC50) on tumor cell proliferation, 22RV1
Procedure: as §2, §3

[11] = biological target: T3, human Cereblon WT GST-tagged protein (Homo sapiens, UniProt Q96SW2); experiment: CRBN binding, HTRF (CEREBLON BINDING kit); conditions: Table II-2, CRBN binding screening, HTRF; for inhibition at 0.5 µM: read-out: Inhibition rate (%) at 0.5µM; for inhibition at 2 µM: read-out: Inhibition rate (%) at 2 µM
T3 construct: purchased CISBIO 64BDCRBNPEH
T3 sequence (Q96SW2 whole entry): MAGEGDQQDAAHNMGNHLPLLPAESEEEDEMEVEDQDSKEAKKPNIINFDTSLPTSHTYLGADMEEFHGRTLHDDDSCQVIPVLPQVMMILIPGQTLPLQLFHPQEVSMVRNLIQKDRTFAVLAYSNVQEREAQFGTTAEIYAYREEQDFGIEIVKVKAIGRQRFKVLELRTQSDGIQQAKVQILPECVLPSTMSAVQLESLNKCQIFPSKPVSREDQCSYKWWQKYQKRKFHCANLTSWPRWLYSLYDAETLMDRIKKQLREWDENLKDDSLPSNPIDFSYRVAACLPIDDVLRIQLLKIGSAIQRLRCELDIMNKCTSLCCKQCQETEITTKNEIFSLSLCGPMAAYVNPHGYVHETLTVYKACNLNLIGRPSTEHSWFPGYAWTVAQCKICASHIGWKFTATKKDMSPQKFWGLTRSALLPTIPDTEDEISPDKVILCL
Outline: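 Competitive HTRF: GST-tagged human WT Cereblon mixed with compound, Thalidomide-Re tracer and GST Eu antibody, incubated 3 h at room temperature. Signals read at 620 and 665 nm.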

[12] = tested on: MV-4-11; experiment: CCK-8 proliferation, MV-4-11; format: cell-based, Human; conditions: Homo sapiens, MV4-11; CCK-8; 72 or 96 hours; read-out: Inhibitory activity (IC50) on tumor cell proliferation, MV-4-11
Outline: as §1

SMILES: Cc1nc2c(F)cc(-c3nc(Nc4ccc(N5CCC(N6CCN(Cc7ccc(C8CCC(=O)NC8=O)c(F)c7)CC6)CC5)cn4)ncc3F)cc2n1C(C)C (stereo not shown) [GT-03906, 3-(2-fluoro-4-((4-(1-(6-((5-fluoro-4-(4-fluoro-1-isopropyl-2-methyl-1H-benzo[d]imidazol-6-yl)pyrimidin-2-yl)amino)pyridin-3-yl)piperidin-4-yl)piperazin-1-yl)methyl)phenyl)piperidine-2,6-dione]
IC50 [1]: 50 to 100 nM
IC50 [2]: 50 to 100 nM
Degradation of substrate protein CDK4 (substrate protein remaining %) [3]: A (A is defined as 0% ≤ substrate protein remaining % ≤ 80%)
IC50 [4]: 100 to 500 nM
IC50 [5]: 50 to 100 nM
IC50 [6]: 100 to 500 nM
IC50 [7]: 10 to 50 nM
Degradation of substrate protein CDK6 (substrate protein remaining %) [8]: A (A is defined as 0% ≤ substrate protein remaining % ≤ 80%)
IC50 [9]: 100 to 500 nM

SMILES: Cc1nc2c(F)cc(-c3nc(Nc4ccc(N5CCC(N6CCN(Cc7ccc(C8CCC(=O)NC8=O)cc7)CC6)CC5)cn4)ncc3F)cc2n1C(C)C (stereo not shown) [GT-03905, 3-(4-((4-(1-(6-((5-fluoro-4-(4-fluoro-1-isopropyl-2-methyl-1H-benzo[d]imidazol-6-yl)pyrimidin-2-yl)amino)pyridin-3-yl)piperidin-4-yl)piperazin-1-yl)methyl)phenyl)piperidine-2,6-dione]
IC50 [2]: 50 to 100 nM
Degradation of substrate protein CDK4 (substrate protein remaining %) [3]: A (A is defined as 0% ≤ substrate protein remaining % ≤ 80%)
IC50 [4]: 100 to 500 nM
IC50 [5]: 50 to 100 nM
IC50 [6]: 100 to 500 nM
IC50 [7]: 50 to 100 nM
Degradation of substrate protein CDK6 (substrate protein remaining %) [8]: A (A is defined as 0% ≤ substrate protein remaining % ≤ 80%)
inhibition at 0.5 µM [11]: 40 to 53%
inhibition at 2 µM [11]: 53 to 60%

Continued, in another order:

IC50 [4]: 50 to 100 nM
IC50 [6]: 50 to 100 nM
IC50 [10]: 10 to 50 nM
IC50 [7]: 10 to 50 nM
IC50 [9]: 10 to 50 nM
inhibition at 0.5 µM [11]: 30 to 40%
inhibition at 2 µM [11]: 53 to 60%
SMILES: Cc1nc2c(F)cc(-c3nc(Nc4ccc(N5CCC(N6CCN(Cc7ccnc(N8CCC(=O)NC8=O)c7)CC6)CC5)cn4)ncc3F)cc2n1C(C)C [GT-07487, 1-(4-((4-(1-(6-((5-fluoro-4-(4-fluoro-1-isopropyl-2-methyl-1H-benzo[d]imidazol-6-yl)pyrimidin-2-yl)amino)pyridin-3-yl)piperidin-4-yl)piperazin-1-yl)methyl)pyridin-2-yl)dihydropyrimidine-2,4(1H,3H)-dione]

IC50 [6]: 100 to 500 nM
IC50 [10]: 10 to 50 nM
IC50 [12]: 100 to 500 nM
IC50 [9]: 100 to 500 nM
SMILES: CC(=O)c1c(C)c2cnc(Nc3ccc(N4CCC(N5CCN(Cc6ccc(C7CCC(=O)NC7=O)cc6)CC5)CC4)cn3)nc2n(C2CCCC2)c1=O (stereo not shown) [GT-06659, 3-(4-((4-(1-(6-((6-acetyl-8-cyclopentyl-5-methyl-7-oxo-7,8-dihydropyrido[2,3-d]pyrimidin-2-yl)amino)pyridin-3-yl)piperidin-4-yl)piperazin-1-yl)methyl)phenyl)piperidine-2,6-dione]
Degradation of substrate protein CDK4 (substrate protein remaining %) [3]: A (A is defined as 0% ≤ substrate protein remaining % ≤ 80%)
IC50 [5]: 100 to 500 nM
Degradation of substrate protein CDK6 (substrate protein remaining %) [8]: A (A is defined as 0% ≤ substrate protein remaining % ≤ 80%)

IC50 [4]: 500 to 1000 nM
IC50 [6]: 500 to 1000 nM
IC50 [10]: 50 to 100 nM
IC50 [12]: 10 to 50 nM
SMILES: Cc1nc2c(F)cc(-c3nc(Nc4ccc(CN5CCN(Cc6ccc(C7CCC(=O)NC7=O)cc6)CC5)cn4)ncc3F)cc2n1C(C)C (stereo not shown) [GT-06664, 3-(4-((4-((6-((5-fluoro-4-(4-fluoro-1-isopropyl-2-methyl-1H-benzo[d]imidazol-6-yl)pyrimidin-2-yl)amino)pyridin-3-yl)methyl)piperazin-1-yl)methyl)phenyl)piperidine-2,6-dione]
IC50 [1]: 100 to 500 nM
Degradation of substrate protein CDK4 (substrate protein remaining %) [3]: A (A is defined as 0% ≤ substrate protein remaining % ≤ 80%)
IC50 [5]: 100 to 500 nM
Degradation of substrate protein CDK6 (substrate protein remaining %) [8]: B (B is defined as substrate protein remaining % > 80%)
